According to patent publication US20030134779A1, “Method and composition for treatment and/or prevention of antibiotic-resistant microorganism infections” (priority 2002, published 2003):

Legend:
Assay type in all cases: cell-based, Staphylococcus aureus
[1] = tested on: S. aureus ATCC 25923; assay: Bacterial growth in MHB
Procedure: (§1) The effect of LF or LFC at concentration sub-MICs alone or in combination with sub-MICs of antibiotics on bacterial growth rate of S. aureus, E. coli and K. pneumoniae was determined by monitoring bacterial cultures in MHB with the O.D.600 nm or by the count of colony forming unit per ml (cfu/ml). A volume of 2.5 ml of overnight cultures in MHB adjusted to 0.5-1 McFarland standard in saline were used to inoculate a final volume of 25 ml of fresh MHB containing the desired concentration of tested compounds. All flasks were then incubated at 37° C. with agitation (200 rpm) for 9 h. Aliquots were removed every hour to determine the culture turbidity using the spectrophotometer Philips PU 8800 (Pye Unican Ltd, Cambridge, UK). The combined antibiotic effect on bacterial growth was also determined using concentrations of LF in the presence of different concentrations of antibiotics. Briefly, a volume of 3 ml of fresh MHB containing desired concentration of drugs was adjusted to an optical density of 0.4 at 540 nm after an overnight culture. The culture was then incubated at 37° C with agitation (200 rpm). After incubation, aliquots were removed to determine the culture turbidity (OD540nm) or cfu/ml. To determine the influence of the level of iron on of the growth inhibition by the test compound, 5 μM of FeCl3 were added to the media.

[2] = tested on: S. aureus PC-1; assay: Bacterial growth in MHB
Procedure: as §1

[3] = tested on: S. aureus strains SHY97-4242 and RFT-5; assay: Bacterial growth in MHB
Procedure: as §1

[4] = tested on: S. aureus SHY97-4320; assay: Cell morphology by transmission electron microscopy
Procedure: Microorganisms were prepared for transmission electron microscopy by fixation with glutaraldehyde followed by ferritin labelling. This method allows good- preservation of capsular material. Briefly, bacterial cells grown in the presence or absence of antibiotics were fixed in cacodylate buffer (0.1 M, pH 7.0) containing 5% (v/v) glutaraldehyde, for 2 h at 20° C. Fixed microorganims were suspended in cacodylate buffer and allowed to react with the polycationic ferritin (Sigma Chemicals, St-Louis, Mo.; final concentration 1.0 mg/ml) for 30 min at 20° C. The reaction was slowed down by 10-fold dilution with buffer, and the microorganisms were centrifuged and washed three times in cacodylate buffer. Bacterial cells were then immobilized in 4% (w/v) agar, washed 5 times in cacodylate buffer and post-fixed with 2% (w/v) osmium tetroxide for 2 h. Washings were repeated as above, and the samples dehydrated in a graded series of acetone washes. Samples were then washed twice in propylene oxide and embedded in Spurr low-viscosity resin. Thin sections were post-stained with uranyl acetate and lead citrate and examined with an electron microscope (Philips 201) at an accelerating voltage of 60 kV.

[5] = tested on: β-lactamase activity of S. aureus SHY97-4320; assay: β-lactamase activity, nitrocefin assay, human LF; settings: 8-μg/ml penicillin G alone
Procedure: Penicillin G was purchased from Novopharm Limited (Toronto, Ontario, Canada). […] Antibiotic stock solutions were always freshly prepared and diluted to the desired concentration in Mueller Hinton broth (MHB) medium (Difco Laboratories, Detroit, MI). β-Lactamase activity was measured using a quantitative spectrophotometric assay with the chromogenic cephalosporin nitrocefin. Bacterial cells were first exposed to penicillin and/or LF during 4 and 22-h in broth. At each time point, the number of cfu/ml were determined and cells aliquots were centrifuged.
The pellets were suspended in 10 mM HEPES buffer (pH 7.4) to an OD415 nm of 0.4 for PC-1 and 4 for strain SHY97-4320. Nitrocefin (100 μM) was added to 20 μl of cells in a final volume of 200 μl. Hydrolysis was measured at 486 nm on a Spectra Max 250 Microplate Spectrophotometer System of Molecular Device (Fisher Scientific, Ottawa, Canada). β-Lactamase activity was expressed as ΔO.D.486 nm/min and corrected for bacterial OD.

[6] = sub-MIC penicillin G (1/4 to 1/16 MIC) with 1 mg/ml LF, P<0.01

SMILES: CC1(C)S[C@@H]2[C@H](NC(=O)Cc3ccccc3)C(=O)N2[C@H]1C(=O)O [penicillin G, Penicillin G]
- growth ([1]; penicillin G combined with 32 μg/ml LFC (⅛ MIC)): Complete growth inhibition
- growth rate [1, 6]: important growth rate reductions
- growth ([2]; penicillin G combined with 64 μg/ml LFC (⅛ MIC)): Complete growth inhibition
- growth rate ([2]; sub-MIC of penicillin G alone): did not significantly affect growth rate
- growth rate [2, 6]: important growth rate reductions
- effect of addition of iron on growth inhibition ([3]; combination of penicillin to LF): did not affect
- growth inhibitory activity of penicillin ([3]; in the presence of LF, P<0.01): enhanced
- growth ([3]; penicillin G alone, P<0.001): reduced the growth
- cell morphology ([4]; penicillin G 8 μg/ml alone, 4-h): no visible effect
- cell morphology ([4]; penicillin G 8 μg/ml combined with LF 1 mg/ml): morphology changes were similar to that observed in the susceptible strain
- β-lactamase activity [5]: present
